Assay results as given in PubChem BioAssay AID328 (DTP/NCI, 2004).
Values joined by “and” are separate entries in the source; they are usually repeats but may differ in a detail not shown here. Equal values may be shown once. Toxic doses and inconclusive results are not listed.

Test system: BDF1 mice, P388 leukemia ip, median survival T/C
Experiment: NCI In Vivo Anticancer Drug Screen. Data for tumor model P388 Leukemia (intraperitoneal) in B6D2F1 (BDF1) mice
Conditions: endpoint: median survival time, higher = longer survival
How it was run: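 Read-out is survival of treated animals expressed relative to the vehicle group, as a T/C ratio.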

[1] = dose: 12.5 mg/kg/injection, schedule: Q01DX009 (ip), vehicle: saline with Tween-80
[2] = dose: 25.0 mg/kg/injection, schedule: Q01DX009 (ip), vehicle: saline with Tween-80
[3] = dose: 100.0 mg/kg/injection, schedule: Q04DX003 (ip), vehicle: water
[4] = dose: 50.0 mg/kg/injection, schedule: Q01DX009 (ip), vehicle: saline with Tween-80
[5] = dose: 100.0 mg/kg/injection, schedule: Q01DX009 (ip), vehicle: saline with Tween-80
[6] = dose: 200.0 mg/kg/injection, schedule: Q01DX009 (ip), vehicle: saline with Tween-80

For `O=NN(CCCl)C(=O)Nc1c[nH]c(=O)[nH]c1=O`, the T/C (dose: 0.08 mg/kg/injection, schedule: Q04DX003 (ip), vehicle: saline with Tween-80) was 155 % of control, the T/C (dose: 0.09 mg/kg/injection, schedule: Q04DX003 (ip), vehicle: saline with Tween-80) was 100 % of control and the T/C (dose: 0.15 mg/kg/injection, schedule: Q04DX003 (ip), vehicle: saline with Tween-80) was 180 % of control. The T/C (dose: 0.3 mg/kg/injection, schedule: Q04DX003 (ip), vehicle: saline with Tween-80) was 185 % of control, the T/C (dose: 0.78 mg/kg/injection, schedule: Q04DX003 (ip), vehicle: saline with Tween-80) was 175 % of control and the T/C (dose: 1.56 mg/kg/injection, schedule: Q04DX003 (ip), vehicle: saline with Tween-80) was 154 % of control. For the same compound, the T/C (dose: 2.4 mg/kg/injection, schedule: Q01DX009 (ip), vehicle: saline with Tween-80) was 186 % of control, the T/C (dose: 3.12 mg/kg/injection, schedule: Q04DX003 (ip), vehicle: saline with Tween-80) was 213 % of control and the T/C (dose: 3.6 mg/kg/injection, schedule: Q01DX009 (ip), vehicle: saline with Tween-80) was 201 % of control. For the same compound, the T/C (dose: 4.0 mg/kg/injection, schedule: Q01DX009 (ip), vehicle: saline with Tween-80) was 195 % of control, the T/C (dose: 5.5 mg/kg/injection, schedule: Q01DX009 (ip), vehicle: saline with Tween-80) was 193 % of control and the T/C (dose: 6.0 mg/kg/injection, schedule: Q01DX009 (ip), vehicle: saline with Tween-80) was 229 % of control. The T/C (dose: 6.25 mg/kg/injection, schedule: Q04DX003 (ip), vehicle: saline with Tween-80) was 190 % of control, the T/C (dose: 8.0 mg/kg/injection, schedule: Q01DX009 (ip), vehicle: saline with Tween-80) was 220 % of control and the T/C (dose: 8.0 mg/kg/injection, schedule: Q04DX003 (ip), vehicle: saline with Tween-80) was 204 % of control. For the same compound, the T/C (dose: 9.0 mg/kg/injection, schedule: Q01DX009 (ip), vehicle: saline with Tween-80) was 120 % of control, the T/C (dose: 12.0 mg/kg/injection, schedule: Q01DX009 (ip), vehicle: saline with Tween-80) was 250 % of control and the T/C (dose: 12.0 mg/kg/injection, schedule: Q04DX003 (ip), vehicle: saline with Tween-80) was 204 % of control. For the same compound, the T/C [1] was 250 % of control, the T/C (dose: 12.5 mg/kg/injection, schedule: Q04DX003 (ip), vehicle: saline with Tween-80) was 230 % of control and the T/C (dose: 18.0 mg/kg/injection, schedule: Q01DX009 (ip), vehicle: saline with Tween-80) was 104 % of control. The T/C (dose: 18.0 mg/kg/injection, schedule: Q04DX003 (ip), vehicle: saline with Tween-80) was 227 % of control, the T/C [2] was 100 % of control and the T/C (dose: 25.0 mg/kg/injection, schedule: Q04DX003 (ip), vehicle: saline with Tween-80) was 230 % of control. For the same compound, the T/C (dose: 50.0 mg/kg/injection, schedule: Q04DX003 (ip), vehicle: saline with Tween-80) was 230 % of control.
For `FC(F)(F)C1=NC(=S)C(c2[nH]c(C(F)(F)F)nc2S)=N1`, the T/C (dose: 3.12 mg/kg/injection, schedule: Q01DX009 (ip), vehicle: water) was 91 % of control, the T/C (dose: 6.25 mg/kg/injection, schedule: Q01DX009 (ip), vehicle: water) was 99 % of control and the T/C (dose: 12.5 mg/kg/injection, schedule: Q01DX009 (ip), vehicle: water) was 108 % of control. The T/C (dose: 12.5 mg/kg/injection, schedule: Q04DX003 (ip), vehicle: water) was 89 % of control and 107 % of control, the T/C (dose: 25.0 mg/kg/injection, schedule: Q01DX009 (ip), vehicle: water) was 103 % of control and the T/C (dose: 25.0 mg/kg/injection, schedule: Q04DX003 (ip), vehicle: water) was 95 % of control and 100 % of control. The T/C (dose: 50.0 mg/kg/injection, schedule: Q01DX009 (ip), vehicle: water) was 112 % of control, the T/C (dose: 50.0 mg/kg/injection, schedule: Q04DX003 (ip), vehicle: water) was 89 % of control and 100 % of control and the T/C (dose: 100.0 mg/kg/injection, schedule: Q01DX009 (ip), vehicle: water) was 110 % of control. For the same compound, the T/C [3] was 89 % of control and 105 % of control.
With `Cc1cc[n+](C)c2ccccc12` the T/C (dose: 9.37 mg/kg/injection, schedule: Q04DX003 (ip), vehicle: saline) was 100 % of control and the T/C (dose: 18.75 mg/kg/injection, schedule: Q04DX003 (ip), vehicle: saline) was 100 % of control.
For `CC(=O)Oc1ccc2c(c1)CCC1C2CCC2(C)C1CCC21CO1` (stereo not given), the T/C [4] was 90 % of control, the T/C [5] was 97 % of control and the T/C [6] was 98 % of control.
In the case of `N#CSCc1ccc(Cl)c(CSC#N)c1`, the T/C (dose: 8.0 mg/kg/injection, schedule: Q01DX009 (ip), vehicle: Klucel (hydroxypropylcellulose) (HPC)) is reported as 110 % of control, the T/C (dose: 12.0 mg/kg/injection, schedule: Q01DX009 (ip), vehicle: Klucel (hydroxypropylcellulose) (HPC)) is reported as 117 % of control and the T/C (dose: 12.5 mg/kg/injection, schedule: Q01DX009 (ip), vehicle: Klucel (hydroxypropylcellulose) (HPC)) is reported as 160 % of control. For the same compound, the T/C (dose: 16.5 mg/kg/injection, schedule: Q04DX003 (ip), vehicle: Klucel (hydroxypropylcellulose) (HPC)) was 115 % of control, the T/C (dose: 25.0 mg/kg/injection, schedule: Q04DX003 (ip), vehicle: Klucel (hydroxypropylcellulose) (HPC)) was 115 % of control and the T/C (dose: 37.0 mg/kg/injection, schedule: Q04DX003 (ip), vehicle: Klucel (hydroxypropylcellulose) (HPC)) was 123 % of control.
For `CC(CC(=N)N)NC(=O)C1CCC(N)=N1` (stereo not given), the T/C (dose: 150.0 mg/kg/injection, schedule: Q01DX009 (ip), vehicle: saline) was 98 % of control and the T/C (dose: 300.0 mg/kg/injection, schedule: Q01DX009 (ip), vehicle: saline) was 98 % of control.
In the case of `c1ccc(OCC2CO2)cc1` (stereo not given), the T/C [5] is reported as 108 % of control and 118 % of control, the T/C (dose: 100.0 mg/kg/injection, schedule: Q04DX003 (ip), vehicle: saline with Tween-80) is reported as 110 % of control and the T/C [6] is reported as 108 % of control and 112 % of control. The T/C (dose: 200.0 mg/kg/injection, schedule: Q04DX003 (ip), vehicle: saline with Tween-80) was 115 % of control and the T/C (dose: 400.0 mg/kg/injection, schedule: Q04DX003 (ip), vehicle: saline with Tween-80) was 110 % of control.
For `COc1cc2cc3c4cc5c(cc4cc[n+]3c(C)c2cc1OC)OCO5` (tested in a mixture with another compound), the T/C (dose: 1.46 mg/kg/injection, schedule: Q04DX003 (ip), vehicle: saline) was 117 % of control, the T/C (dose: 16.5 mg/kg/injection, schedule: Q04DX003 (ip), vehicle: saline) was 150 % of control and the T/C (dose: 25.0 mg/kg/injection, schedule: Q04DX003 (ip), vehicle: saline) was 156 % of control and 159 % of control. The T/C (dose: 44.0 mg/kg/injection, schedule: Q04DX003 (ip), vehicle: saline) was 168 % of control, the T/C (dose: 50.0 mg/kg/injection, schedule: Q04DX003 (ip), vehicle: saline) was 160 % of control and the T/C (dose: 66.0 mg/kg/injection, schedule: Q04DX003 (ip), vehicle: saline) was 177 % of control. For the same compound, the T/C (dose: 100.0 mg/kg/injection, schedule: Q04DX003 (ip), vehicle: saline) was 163 % of control and 182 % of control.
In the case of `NOCc1ccccc1CON`, the T/C (dose: 37.5 mg/kg/injection, schedule: Q04DX003 (ip), vehicle: saline) is reported as 108 % of control, the T/C (dose: 75.0 mg/kg/injection, schedule: Q04DX003 (ip), vehicle: saline) is reported as 95 % of control and the T/C (dose: 150.0 mg/kg/injection, schedule: Q04DX003 (ip), vehicle: saline) is reported as 100 % of control.
In the case of `C/C(=N\N)c1ccc(Cl)cc1`, the T/C (dose: 6.25 mg/kg/injection, schedule: Q01DX009 (ip), vehicle: saline with Tween-80) is reported as 100 % of control, the T/C [1] is reported as 104 % of control and the T/C [2] is reported as 95 % of control.
In the case of `CC(=O)N1CCn2nccc21`, the T/C [3] is reported as 104 % of control, the T/C (dose: 200.0 mg/kg/injection, schedule: Q04DX003 (ip), vehicle: water) is reported as 90 % of control and the T/C (dose: 400.0 mg/kg/injection, schedule: Q04DX003 (ip), vehicle: water) is reported as 112 % of control.
For `CCOC(=O)C1CCCC23CC(CC12)C(C)(C)C3Br` (stereo not given), the T/C (dose: 100.0 mg/kg/injection, schedule: Q04DX003 (ip), vehicle: Klucel (hydroxypropylcellulose) (HPC)) was 100 % of control, the T/C (dose: 200.0 mg/kg/injection, schedule: Q04DX003 (ip), vehicle: Klucel (hydroxypropylcellulose) (HPC)) was 90 % of control and the T/C (dose: 400.0 mg/kg/injection, schedule: Q04DX003 (ip), vehicle: Klucel (hydroxypropylcellulose) (HPC)) was 100 % of control.
In the case of `O=C1CN(CCc2ccccc2)CC(=O)N2C(c3ccccc3)CCCN12` (stereo not given), the T/C (dose: 50.0 mg/kg/injection, schedule: Q01DX005 (ip), vehicle: saline with Tween-80) is reported as 94 % of control, the T/C (dose: 100.0 mg/kg/injection, schedule: Q01DX005 (ip), vehicle: saline with Tween-80) is reported as 97 % of control and the T/C (dose: 200.0 mg/kg/injection, schedule: Q01DX005 (ip), vehicle: saline with Tween-80) is reported as 97 % of control.
With `Cc1ccc(NC(=O)C(C)(C)C)c(C(O)(C(F)(F)F)C(F)(F)F)c1` the T/C (dose: 100.0 mg/kg/injection, schedule: Q01DX001 (ip), vehicle: saline with Tween-80) was 99 % of control, the T/C (dose: 200.0 mg/kg/injection, schedule: Q01DX001 (ip), vehicle: saline with Tween-80) was 106 % of control and the T/C (dose: 400.0 mg/kg/injection, schedule: Q01DX001 (ip), vehicle: saline with Tween-80) was 99 % of control.
In the case of `O=C1CSC(C23CC4CC(CC(C4)C2)C3)N1c1nccs1` (stereo not given), the T/C [4] is reported as 92 % of control and the T/C [5] is reported as 90 % of control.
